# Results published in patent publication US20070298444A1, “Methods and Compositions for Use in Evaluating and Treating Neoplastic Disease Conditions” (priority 2004, published 2007).
# Legend:
# Assay type in all cases: cell-based, human
# [1] = tested on: HBEC; assay: Nocodazole treatment and recovery of HBEC, immunofluorescence microscopy
# Procedure: (§1) HBEC were grown to 70% confluency on 1 well-chambered coverglass (Lab-Tek II, Nunc, #1.5). For all experiments except the localization of LTB4DH and Hs.516830 to the centriole in D51 cells, which required a stringent wash prior to fixation, standard fixation conditions were used. For standard conditions, culture media was removed and the cells were fixed directly in PBS containing 3% formaldehyde for 20 minutes. For stringent conditions, cells were rinsed quickly in PHEM buffer (60 mM Pipes, 25 mM Hepes, 10 mM EGTA, 1 mM Mg-acetate, pH 6.9), lysed for 2 minutes in PHEM containing 0.5% Triton X100, and fixed in PHEM containing 3% formaldehyde for 20 minutes. All steps subsequent to cell fixation were identical. Cells were incubated with PBS containing 50 mM NH4Cl for 10 minutes, permeabilized in PBS containing 0.1% Triton X-100 at RT for 3 minutes, and blocked one hour in block buffer (PBS containing 0.75% BSA [GIBCO]). Primary antisera was diluted in block buffer to a final concentration of 1-10 ug/ml, depending on the antibody, and incubated with cells for 1.5 hours at room temperature. Conjugated secondary antibodies (diluted in block buffer to 2 ug/ml) were incubated for 45 minutes at room temperature. Phalloidin conjugated to rhodamine (Molecular Probes, 1 unit/ml final) was included during secondary antibody incubation where indicated in the figure legend. DNA was stained with 300 nM DAPI (Molecular Probes) in PBS for 5 minutes, and the cells were mounted in Prolong Antifade (Molecular Probes). Wide-field fluorescence microscopy (DeltaVision, Applied Precision) and subsequent deconvolution was used for all images that dealt with fixed cells. A 0.2-micron z-plane was used throughout. Three-dimensional rendering of stacked images was done on Volocity 2.0 software (Improvision).
# (§2) Primary cell cultures of human bronchial epithelial cells (HBEC) were purchased commercially (Cambrex, no retinoic acid) from two male donors and grown in BEGM medium (Cambrex) according to specifications. […]
# [2] = tested on: HBEC; assay: Paclitaxel treatment of HBEC, immunofluorescence microscopy
# Procedure: as §1, §2
# [3] = tested on: MCF10A breast epithelial cells; assay: Paclitaxel treatment of MCF10A, immunofluorescence microscopy; conditions: 1 uM paclitaxel, 9 hours
SMILES,presence of ribbon-like structure ([1]; nocodazole 20 minute exposure),"effect on cytoplasmic microtubules ([1]; nocodazole 20 minute exposure, alpha-tubulin antisera)","effect on actin fibers ([1]; nocodazole treatment then 20 minute recovery, phalloidin-rhodamine)","formation of ribbon-like structure ([2]; HBEC treated with paclitaxel versus absence of paclitaxel, antisera to OKL38, LTB4DH, RLA1, TRIM29)","increase in the number of mitotic figures ([2]; HBEC, 1 uM paclitaxel, 9 hours, DAPI stain of fixed cells)","mitotic spindle integrity based on microtubule localization ([2]; HBEC, 1 uM paclitaxel, 9 hours, alpha-tubulin immunofluorescence)",localization of ribbon-like structure [3]
COC(=O)Nc1nc2ccc(C(=O)c3cccs3)cc2[nH]1 [nocodazole],uncharacteristically absent,sufficient to eliminate cytoplasmic MT,unaffected,–,–,–,–
CC(=O)O[C@H]1C(=O)[C@@]2(C)[C@H]([C@H](OC(=O)c3ccccc3)[C@]3(O)C[C@H](OC(=O)[C@H](O)[C@@H](NC(=O)c4ccccc4)c4ccccc4)C(C)=C1C3(C)C)[C@]1(OC(C)=O)CO[C@@H]1C[C@@H]2O [paclitaxel],–,–,–,promotes the formation of a ribbon-like structure in close proximity to mitotic DNA,10 fold,no indication of an intact mitotic spindle in any cell,"localization of a ribbon-like structure in the vicinity of condensed, mitotic DNA"
